Assay results from US8148367B2 (Takeda Pharmaceutical Company Limited, priority 2008, dated 2012).

Target: T1, Recombinant human renin (Homo sapiens, UniProt P00797)
T1 construct: isolate the active form (residues 67-406); made in house; host or cells: FreeStyle 293-F cells, transient expression of pcDNA3.1(+)/hREN
T1 sequence (P00797 67-406): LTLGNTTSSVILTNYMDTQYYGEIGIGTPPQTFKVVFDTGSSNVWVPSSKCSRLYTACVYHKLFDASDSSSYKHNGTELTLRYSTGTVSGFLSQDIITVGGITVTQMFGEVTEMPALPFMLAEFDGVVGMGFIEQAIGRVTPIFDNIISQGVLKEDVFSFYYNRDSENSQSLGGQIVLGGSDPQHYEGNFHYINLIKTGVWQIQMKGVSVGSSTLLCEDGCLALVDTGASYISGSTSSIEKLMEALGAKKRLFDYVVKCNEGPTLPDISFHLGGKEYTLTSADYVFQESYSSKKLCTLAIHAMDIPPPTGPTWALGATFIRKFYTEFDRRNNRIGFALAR
Assay: In vitro enzymatic activity assay of renin inhibitors (fluorescence, QXL520/HiLyteFluo488 peptide substrate)
Assay type: biochemical
Details: recombinant human renin 3 nM, 1 μM substrate, pre-incubated 10 minutes at 37° C., incubation one hour, pH 7.4, 5% DMSO; read-out: IC50 of Exemplified Compounds Against Renin

SMILES: Cc1ccccc1-n1c(-c2ccccc2)c(C(=O)N2CCNCC2)n(CCNS(=O)(=O)c2ccccc2C)c1=O [Example 208, 2-Methyl-N-(2-(2-oxo-4-phenyl-5-(piperazine-1-carbonyl)-3-o-tolyl-2,3-dihydro-1H-imidazol-1-yl)ethyl)benzenesulfonamide]
- IC50: 0.5 to 1 µM

SMILES: O=C(c1[nH]c(=O)n(C2CCCCC2)c1-c1ccccc1)N1CCNC[C@H]1Cc1ccccc1 [Example 111, (R)-4-(2-Benzylpiperazine-1-carbonyl)-1-cyclohexyl-5-phenyl-1H-imidazol-2(3H)-one]
- IC50: < 0.1 µM

SMILES: O=C(c1[nH]c(=O)n(-c2cccc(N3CCOCC3)c2)c1-c1ccccc1)N1CCNC[C@H]1Cc1ccccc1 [Example 110, (R)-4-(2-Benzylpiperazine-1-carbonyl)-1-(3-morpholinophenyl)-5-phenyl-1H-imidazol-2(3H)-one]
- IC50: < 0.1 µM

SMILES: N#Cc1ccccc1Cn1c(C(=O)N2CCNCC2)c(-c2ccccc2)n(-c2ccccc2)c1=O [Example 85, 2-((2-Oxo-3,4-diphenyl-5-(piperazine-1-carbonyl)-2,3-dihydro-1H-imidazol-1-yl)methyl)benzonitrile]
- IC50: > 1 µM

SMILES: C=CCn1c(C(=O)N2CCNCC2)c(-c2ccccc2)n(-c2cccc(N3CCOCC3)c2)c1=O [Example 150, 1-Allyl-3-(3-morpholinophenyl)-4-phenyl-5-(piperazine-1-carbonyl)-1H-imidazol-2(3H)-one]
- IC50: > 1 µM

SMILES: Cc1ccccc1-n1c(-c2ccccc2)c(C(=O)N2CCNCC2)n(CCNS(=O)(=O)C(C)C)c1=O [Example 206, N-(2-(2-Oxo-4-phenyl-5-(piperazine-1-carbonyl)-3-o-tolyl-2,3-dihydro-1H-imidazol-1-yl)ethyl)propane-2-sulfonamide]
- IC50: 0.5 to 1 µM

SMILES: COCCOc1cccc(-n2c(-c3cccc(Cl)c3)c(C(=O)N3CCNCC3)[nH]c2=O)c1 [Example 43, 5-(3-Chlorophenyl)-1-(3-(2-methoxyethoxy)phenyl)-4-(piperazine-1-carbonyl)-1H-imidazol-2(3H)-one]
- IC50: > 1 µM

SMILES: CC(=O)N1CCCC(n2c(-c3ccccc3)c(C(=O)N3CCNCC3)[nH]c2=O)C1 (stereo not shown) [Example 94, 1-(1-Acetylpiperidin-3-yl)-5-phenyl-4-(piperazine-1-carbonyl)-1H-imidazol-2(3H)-one]
- IC50: > 1 µM

SMILES: COc1cccc(S(=O)(=O)NCCCn2c(C(=O)N3CCNCC3)c(-c3ccccc3)n(-c3cccc(N4CCOCC4)c3)c2=O)c1 [Example 198, 3-Methoxy-N-(3-(3-(3-morpholinophenyl)-2-oxo-4-phenyl-5-(piperazine-1-carbonyl)-2,3-dihydro-1H-imidazol-1-yl)propyl)benzenesulfonamide]
- IC50: 0.1 to 0.5 µM

SMILES: O=C(c1[nH]c(=O)n(C2CCCN(S(=O)(=O)c3ccccc3)C2)c1-c1ccccc1)N1CCNCC1 (stereo not shown) [Example 98, 5-Phenyl-1-(1-(phenylsulfonyl)piperidin-3-yl)-4-(piperazine-1-carbonyl)-1H-imidazol-2(3H)-one]
- IC50: 0.5 to 1 µM

SMILES: O=C(c1[nH]c(=O)n(-c2ccccc2)c1CC1CC1)N1CCNCC1 [Example 25, 5-(Cyclopropylmethyl)-1-phenyl-4-(piperazine-1-carbonyl)-1H-imidazol-2(3H)-one]
- IC50: > 1 µM

SMILES: COc1cccc(Cn2c(C(=O)N3CCNCC3)c(-c3ccccc3)n([C@H]3CCCC[C@H]3O)c2=O)c1 [Example 153, 1-((1S,2R)-2-Hydroxycyclohexyl)-3-(3-methoxybenzyl)-5-phenyl-4-(piperazine-1-carbonyl)-1H-imidazol-2(3H)-one]
- IC50: > 1 µM

SMILES: Cc1ccccc1-n1c(-c2ccccc2)c(C(=O)N2CCNCC2)n(CCCNS(=O)(=O)c2ccccc2)c1=O [Example 162, N-(3-(2-oxo-4-Phenyl-5-(piperazine-1-carbonyl)-3-o-tolyl-2,3-dihydro-1H-imidazol-1-yl)propyl)benzenesulfonamide]
- IC50: 0.1 to 0.5 µM

SMILES: O=C(c1[nH]c(=O)n(-c2nc3ccccc3[nH]2)c1-c1ccccc1)N1CCNCC1 [Example 44, 1-(1H-benzo[d]imidazol-2-yl)-5-phenyl-4-(piperazine-1-carbonyl)-1H-imidazol-2(3H)-one]
- IC50: > 1 µM

SMILES: COCCCOc1cccc(-n2c(-c3ccccc3)c(C(=O)N3CCNCC3)n(Cc3cccc(OCCOC)c3)c2=O)c1 [Example 192, 1-(3-(2-Methoxyethoxy)benzyl)-3-(3-(3-methoxypropoxy)phenyl)-4-phenyl-5-(piperazine-1-carbonyl)-1H-imidazol-2(3H)-one]
- IC50: > 1 µM

SMILES: CC(C)CC(=O)NCCCn1c(C(=O)N2CCNCC2)c(-c2ccccc2)n(-c2cccc(N3CCOCC3)c2)c1=O [Example 176, 3-Methyl-N-(3-(3-(3-morpholinophenyl)-2-oxo-4-phenyl-5-(piperazine-1-carbonyl)-2,3-dihydro-1H-imidazol-1-yl)propyl)butanamide]
- IC50: > 1 µM

SMILES: COCCN1CCOc2ccc(-n3c(-c4ccccc4)c(C(=O)N4CCNC[C@H]4Cc4ccccc4)[nH]c3=O)cc21 [Example 137, (R)-4-(2-Benzylpiperazine-1-carbonyl)-1-(4-(2-methoxyethyl)-3,4-dihydro-2H-benzo[b][1,4]oxazin-6-yl)-5-phenyl-1H-imidazol-2(3H)-one]
- IC50: < 0.1 µM

SMILES: Cc1ccccc1-n1c(-c2ccccc2)c(C(=O)N2CCNCC2)n(CCCNS(=O)(=O)c2ccccc2F)c1=O [Example 229, 2-Fluoro-N-(3-(2-oxo-4-phenyl-5-(piperazine-1-carbonyl)-3-o-tolyl-2,3-dihydro-1H-imidazol-1-yl)propyl)benzenesulfonamide]
- IC50: 0.5 to 1 µM

SMILES: COc1cc(-c2cc(Cn3c(C(=O)N4CCNCC4)c(-c4ccccc4)n(C4CCCCC4)c3=O)cc(-c3ccnc(OC)c3)n2)ccn1 [Example 17E, 1-Cyclohexyl-3-((2,6-di(2-methoxyl-pyridine-4-yl)pyridin-4-yl)methyl)-5-phenyl-4-(piperazine-1-carbonyl)-1H-imidazol-2(3H)-one]
- IC50: 0.1 to 0.5 µM

SMILES: COC(=O)c1cccc(Cn2c(C(=O)N3CCNCC3)c(-c3ccccc3)n(-c3ccccc3)c2=O)c1 [Example 80, Methyl 3-((2-oxo-3,4-diphenyl-5-(piperazine-1-carbonyl)-2,3-dihydro-1H-imidazol-1-yl)methyl)benzoate]
- IC50: > 1 µM

SMILES: CC(C)CC(=O)NCCn1c(C(=O)N2CCNCC2)c(-c2ccccc2)n(C2CCCC[C@@H]2O)c1=O (stereo partly drawn) [Example 173, N-(2-(3-((2S)-2-Hydroxycyclohexyl)-2-oxo-4-phenyl-5-(piperazine-1-carbonyl)-2,3-dihydro-1H-imidazol-1-yl)ethyl)-3-methylbutanamide]
- IC50: > 1 µM

SMILES: Cc1ccccc1-n1c(-c2ccccc2)c(C(=O)N2CCNCC2)n(CCNS(=O)(=O)c2ccccc2)c1=O [Example 155, N-(2-(2-oxo-4-Phenyl-5-(piperazine-1-carbonyl)-3-o-tolyl-2,3-dihydro-1H-imidazol-1-yl)ethyl)benzenesulfonamide]
- IC50: > 1 µM

SMILES: Cc1ccccc1-n1c(-c2ccccc2)c(C(=O)N2CCNCC2)n(CCCNS(=O)(=O)c2ccccc2C)c1=O [Example 220, 2-Methyl-N-(3-(2-oxo-4-phenyl-5-(piperazine-1-carbonyl)-3-o-tolyl-2,3-dihydro-1H-imidazol-1-yl)propyl)benzenesulfonamide]
- IC50: < 0.1 µM

SMILES: O=C(c1c(-c2ccccc2)n(C2CCCCC2)c(=O)n1CCc1ccccc1)N1CCNCC1 [Example 71, 1-Cyclohexyl-3-phenethyl-5-phenyl-4-(piperazine-1-carbonyl)-1H-imidazol-2(3H)-one]
- IC50: 0.1 to 0.5 µM

SMILES: Cc1ccccc1-n1c(-c2ccccc2)c(C(=O)N2CCNCC2)n(CCNC(=O)c2ccc(Cl)cc2)c1=O [Example 233, 4-Chloro-N-(2-(2-oxo-4-phenyl-5-(piperazine-1-carbonyl)-3-o-tolyl-2,3-dihydro-1H-imidazol-1-yl)ethyl)benzamide]
- IC50: 0.5 to 1 µM

SMILES: COc1ccccc1-n1c(-c2ccccc2)c(C(=O)N2CCNCC2)n(CC2CCCCC2)c1=O [Example 160, 1-(Cyclohexylmethyl)-3-(2-methoxyphenyl)-4-phenyl-5-(piperazine-1-carbonyl)-1H-imidazol-2(3H)-one]
- IC50: > 1 µM

SMILES: Cc1ccccc1-n1c(-c2ccccc2)c(C(=O)N2CCNC[C@H]2Cc2ccccc2)[nH]c1=O [Example 116, (R)-4-(2-Benzylpiperazine-1-carbonyl)-5-phenyl-1-o-tolyl-1H-imidazol-2(3H)-one]
- IC50: < 0.1 µM

SMILES: COc1ccc(-c2cc(Cn3c(C(=O)N4CCNCC4)c(-c4ccccc4)n(C4CCCCC4)c3=O)ccn2)cn1 [Example 17F, 1-Cyclohexyl-3-((6′-methoxy-2,3′-bipyridin-4-yl)methyl)-5-phenyl-4-(piperazine-1-carbonyl)-1H-imidazol-2(3H)-one]
- IC50: 0.1 to 0.5 µM

SMILES: CC(C)c1c(C(=O)N2CCNCC2)[nH]c(=O)n1-c1ccccc1 [Example 23, 5-Isopropyl-1-phenyl-4-(piperazine-1-carbonyl)-1H-imidazol-2(3H)-one]
- IC50: > 1 µM

SMILES: CC1CN(C(=O)c2[nH]c(=O)n(C3CCCCC3)c2-c2ccccc2)C(C)CN1 (stereo not shown) [Example 41, 1-Cyclohexyl-4-(2,5-dimethylpiperazine-1-carbonyl)-5-phenyl-1H-imidazol-2(3H)-one]
- IC50: > 1 µM

SMILES: COCCCOc1cccc(-n2c(-c3ccccc3)c(C(=O)N3CCNCC3)n(Cc3cccc(Oc4ccccc4)c3)c2=O)c1 [Example 13, 1-(3-(3-methoxypropoxy)phenyl)-3-(3-phenoxybenzyl)-5-phenyl-4-(piperazine-1-carbonyl)-1H-imidazol-2(3H)-one]
- IC50: > 1 µM
